# Experimental data published in patent US9434701B2, “Aminoquinoxaline derivatives for treatment of neurodegenerative diseases” (CENTRE NATIONAL DE LA RECHERCHE SCIENTIFIQUE (CNRS), priority 2011, dated 2016).
# System: dopaminergic fibers in the striatum and dopaminergic neurons in the substantia nigra
# Assay: neuroprotection in mice lesioned by intranasal MPTP (animal model of Parkinson's disease), TH immunohistochemistry
# Type: in vivo
# Conditions: oral 150 mg/kg twice daily 2 days then 75 mg/kg once daily
# Description: The goal of this study is to test by an […] study the neuroprotective activity of compound 4bc administered orally to a mouse after it is poisoned by intranasal administration of MPTP. The food intake and weight of the animals were also compared to a control group. The densitometric analysis of striatal fibers and count of dopaminergic cell bodies in the substantia nigra, after immunohistochemical marking of tyrosine hydroxylase enabled quantifying the neuroprotective effect of the compound.
# 30 male C57BL\6J mice aged 3 months (supplier: Janvier Breeding Center) were used during this study.
# Compound 4bc was administered orally at a dose of 150 mg/kg to 10 mL/kg, twice daily for two days, and then 75 mg/kg once daily. The carrier was composed of 0.5% Tween 80+99.5% carboxymethylcellulose (at 1% in water). A curved rigid tube connected to a 1 mL Terumo syringe was used for administration.
# MPTP, a toxin specific for dopaminergic neurons was administered intranasally. One mg (10 μl) of MPTP/HCl (Sigma) dissolved in a 0.9% NaCl solution was delivered per nostril with a 3-minute interval between the two nostrils. […]
# To quantify the neuroprotective capacity of compound 4bc, an immunohistochemistry study was done on floating brain slices. Two brain anatomic structures were analyzed: the striatum (20 μm slices, 10 levels) and the substantia nigra (20 μm slices, 7 levels). […]
structure (smiles),measurement,setting,value
Cc1nc2ccc(N)cc2nc1-c1ccccc1 [Compound 4bc],neuroprotective activity on dopaminergic fibers in vivo (FIGS. 9 and 10),"intranasal MPTP, Mann-Whitney test",significant neuroprotective activity
same,mild toxicity in animals who received only the compound (T/NL),not lesioned,not significant
